ECmax data for one molecule are collected here from PubChem BioAssay AID2627 (Broad Institute, 2010).

This experiment has as its target Alpha-synuclein (Homo sapiens) (UniProt P37840). The experiment in a line: increase of SNCA protein level in cells – Western blot, H4 cells, dose response (AID 2627). Background: Immunoblotting shows a protein as a band on a membrane.

`c1ccc2c(Nc3nnc(-c4ccncc4)s3)cccc2c1`: the ECmax was 1000 nM.
